The target of test [1] is T1, SPT (SPT2-expressing membrane fraction: human SPT1, human SPT2 and human ssSPTa) (Homo sapiens, UniProt O15269+O15270).
T1 construct: Full-length human SPT1, human SPT2 and human ssSPTa used; made in house; host or cells: FreeStyle 293 cells (pcDNA3.1 vectors, cotransfection); crude membrane fraction used
T1 sequence (O15269 1-473): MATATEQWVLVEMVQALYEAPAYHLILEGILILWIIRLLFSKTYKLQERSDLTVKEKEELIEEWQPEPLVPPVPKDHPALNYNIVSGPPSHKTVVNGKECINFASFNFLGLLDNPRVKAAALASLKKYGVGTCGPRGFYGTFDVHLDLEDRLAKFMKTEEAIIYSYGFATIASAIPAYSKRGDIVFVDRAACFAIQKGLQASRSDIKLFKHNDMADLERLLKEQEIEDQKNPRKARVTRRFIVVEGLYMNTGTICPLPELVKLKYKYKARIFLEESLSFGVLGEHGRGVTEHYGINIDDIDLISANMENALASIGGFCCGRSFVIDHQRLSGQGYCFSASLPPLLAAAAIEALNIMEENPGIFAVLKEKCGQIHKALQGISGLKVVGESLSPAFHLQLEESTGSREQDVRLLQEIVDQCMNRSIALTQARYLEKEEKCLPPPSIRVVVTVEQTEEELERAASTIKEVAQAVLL
T1 sequence (O15270 1-562): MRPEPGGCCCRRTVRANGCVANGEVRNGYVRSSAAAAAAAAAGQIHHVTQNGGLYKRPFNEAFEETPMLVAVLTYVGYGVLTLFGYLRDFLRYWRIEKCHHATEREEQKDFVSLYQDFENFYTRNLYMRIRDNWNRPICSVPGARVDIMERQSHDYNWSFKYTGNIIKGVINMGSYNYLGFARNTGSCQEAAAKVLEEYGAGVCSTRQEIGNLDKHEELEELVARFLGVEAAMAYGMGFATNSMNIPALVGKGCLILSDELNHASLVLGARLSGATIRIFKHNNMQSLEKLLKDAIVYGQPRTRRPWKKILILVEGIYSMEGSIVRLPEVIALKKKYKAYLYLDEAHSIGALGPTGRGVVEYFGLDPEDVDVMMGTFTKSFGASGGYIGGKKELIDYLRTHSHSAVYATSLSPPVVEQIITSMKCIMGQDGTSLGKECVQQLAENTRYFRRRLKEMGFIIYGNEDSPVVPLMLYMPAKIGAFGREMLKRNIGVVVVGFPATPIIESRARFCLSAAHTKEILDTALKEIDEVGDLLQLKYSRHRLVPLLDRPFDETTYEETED
T1 sequence (Q969W0 1-71 partner): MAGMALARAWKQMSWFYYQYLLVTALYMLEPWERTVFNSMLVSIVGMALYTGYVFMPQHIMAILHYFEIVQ
The test can be described thus: SPT enzyme inhibition test (Test Example 1). Type of test: biochemical. Conditions: read-out: Rate of inhibition (%) at 1 μM. On the procedure: After culture for 3 days, the cells were recovered and frozen at −80° C. to obtain expressing cells. The frozen cells were suspended in a 50 mM Hepes buffer (pH 7.5) containing 250 mM sucrose, 5 mM ethylenediaminetetraacetic acid (EDTA), 5 mM dithiothreitol (DTT) and Complete, EDTA-free (Roche Applied Science, Penzberg, Upper Bavaria, Germany). The cells were disrupted (on ice, 20,000 rpm, 20 sec×2) using POLYTORON (Central Scientific Commerce, Inc.). After centrifugation at 2000 rpm (850×g) for 10 minutes, the supernatant was recovered. Subsequently, the supernatant was centrifuged at 40,000 rpm (186,010×g) for 60 minutes, and the supernatant was discarded. The pellets were suspended in a 50 mM Hepes buffer (pH 7.5) containing 5 mM EDTA, 5 mM DTT and Complete, EDTA-free, passed through a 40-μm cell strainer and stored at −80° C. The resultant was used as a SPT2-expressing membrane fraction. The protein concentration was determined using CBB Protein Assay with bovine serum albumin used as standards.
5 μL of each test compound was mixed with 10 μL of the 100 μg/mL SPT2-expressing membrane fraction using an assay buffer (100 mM Hepes (pH 8.0) containing 2.5 mM EDTA, 5 mM DTT and 0.01% fatty acid-free bovine serum albumin), and the mixture was left standing at room temperature for 60 minutes. Subsequently, 5 μL of a substrate solution containing 2 mM L-serine and 20 μM palmitoyl CoA was added thereto, and an enzyme reaction was carried out in a 384-well plate using 20 μL in total of the reaction system. After reaction at room temperature for 15 minutes, the reaction was terminated by the addition of 20 μL of a 2% aqueous formic acid solution. Subsequently, 40 μL of acetonitrile containing 600 nM C17-sphinganine (Avanti Polar Lipids, Inc., Alabaster, Ala., U.S.) was added thereto as an internal standard. The reaction sample was subjected to on-line solid-layer extraction using RapidFire 300 (Agilent Technologies Inc., Santa Clara, Calif., U.S.). […] Mass chromatograms were obtained using Analyst software (version 1.5.0, AB SCIEX). Their mass chromatogram areas were respectively calculated, and the rate of inhibition (%) by the test compound was calculated using an area ratio (the value of the reaction product was divided by the value of the internal standard).

Test [2] deals with lung adenocarcinoma cell line HCC4006. The experiment in a line: HCC4006 cell growth inhibition test (Test Example 2). Conditions: Homo sapiens, 120 h, HCC4006 cells, culture for 5 days, CellTiter-Glo; for inhibition at 1 µM: 1 μM test compound, read-out: Rate of inhibition (%) at 1 μM. Type of test: cell-based. On the procedure:
A lung adenocarcinoma cell line HCC4006 (ATCC) was cultured using an RPMI-1640 medium (Wako Pure Chemical Industries, Ltd.) containing 10% fetal bovine serum and penicillin/streptomycin. 250 cells per well were inoculated into 40 μL of a medium in a 384-well culture plate. On the next day, 10 μL of each test compound was added to the cells. After culture for 5 days, the medium was discarded, and 30 μL of CellTiter-Glo Luminescent Cell Viability Assay solution (Promega Corp., Fitchburg, Wis., U.S.) was added to each well. Light emission signals were measured using EnVision (PerkinElmer, Inc., Waltham, Mass., U.S.).
The rate of inhibition (%) by the test compound was calculated according to the following expression: Rate of inhibition (%)=(1−(Count of the test compound−Blank)/(Control−Blank))×100
In the above expression, a count under compound non-addition conditions was indicated as a control, and a count under cell-free conditions was indicated as a blank.
On the technique in general: ATP-based viability assays read luminescence as a measure of living cells.

For the molecule `Cc1nn(C)c(Cl)c1C(=O)N[C@@H]1CCN(C(=O)c2cc(Cl)c3nccnc3c2)C[C@@H]1c1ccc(F)cc1` [Example 59B, 5-Chloro-N-((3S,4R)-1-((8-chloroquinoxalin-6-yl)carbonyl)-3-(4-fluorophenyl)piperidin-4-yl)-1,3-dimethyl-1H-pyrazole-4-carboxamide], in test [1], the inhibition at 1 µM came out at 101%. In test [2] (0.3 μM test compound, read-out: Rate of inhibition at 0.3 μM), the inhibition at 0.3 µM worked out at 53%.
As for `COc1cc(C(=O)N2CC[C@@H](NC(=O)c3cn(C)nc3C)[C@@H](c3ccccc3)C2)cnc1OC` [Example 152B, N-((3S,4R)-1-((5,6-dimethoxypyridin-3-yl)carbonyl)-3-phenylpiperidin-4-yl)-1,3-dimethyl-1H-pyrazole-4-carboxamide], the inhibition at 1 µM in test [1] was 96%; in test [2], 33%.
The corresponding values for `Cc1cc(C(=O)N[C@@H]2CCN(C(=O)c3cc(Cl)c4nccnc4c3)C[C@@H]2c2ccc(F)cc2)n(C)n1` [Example 58B, N-((3S,4R)-1-((8-chloroquinoxalin-6-yl)carbonyl)-3-(4-fluorophenyl)piperidin-4-yl)-1,3-dimethyl-1H-pyrazole-5-carboxamide] are 101% and 49%.
Take `COc1cc(C(=O)N2CCC(NC(=O)c3ccccc3OC(F)(F)F)c3c2cnn3C)cnc1OC` (stereo not shown) [Example 133A, N-(4-((5,6-Dimethoxypyridin-3-yl)carbonyl)-1-methyl-4,5,6,7-tetrahydro-1H-pyrazolo[4,3-b]pyridin-7-yl)-2-(trifluoromethoxy)benzamide]: the inhibition at 1 µM in test [1] amounted to 101%; in test [2], 50%.
Turning to `COc1ncc(C(=O)N2CC[C@H](NC(=O)c3ccc(Cl)cc3C(F)(F)F)c3c2cnn3CC(F)F)cc1Cl` [Example 170A, 4-Chloro-N-((7S)-4-((5-chloro-6-methoxypyridin-3-yl)carbonyl)-1-(2,2-difluoroethyl)-4,5,6,7-tetrahydro-1H-pyrazolo[4,3-b]pyridin-7-yl)-2-(trifluoromethyl)benzamide], the inhibition at 1 µM in test [1] was found to be 99%; in test [2], 50%.
Consider `Cc1cc(C(=O)N[C@@H]2CCN(C(=O)c3cc(Cl)c4nccnc4c3)C[C@@H]2c2ccccc2)n(C)n1` [Example 23B, N-((3S,4R)-1-((8-Chloroquinoxalin-6-yl)carbonyl)-3-phenylpiperidin-4-yl)-1,3-dimethyl-1H-pyrazole-5-carboxamide], for which the inhibition at 1 µM in test [1] was determined as 101%; in test [2] it was 53%.
The corresponding values for `CS(=O)(=O)c1ccc(C(=O)N2CC[C@@H](NC(=O)c3ccccc3OC(F)(F)F)[C@@H](c3ccccc3)C2)cc1Cl` [Example 102B, N-((3S,4R)-1-(3-chloro-4-(methylsulfonyl)benzoyl)-3-phenylpiperidin-4-yl)-2-(trifluoromethoxy)benzamide] are 100% and 46%.
The like results for `Cc1cc(NC(=O)C2CC2)sc1C(=O)N1CC[C@@H](NC(=O)c2ccccc2OC(F)(F)F)[C@@H](c2ccccc2)C1` [Example 35B, N-((3S,4R)-1-((5-((cyclopropylcarbonyl)amino)-3-methyl-2-thienyl)carbonyl)-3-phenylpiperidin-4-yl)-2-(trifluoromethoxy)benzamide] were, in that order, 101% and 40%.
The corresponding values for `COc1ccc(C(=O)N2CC[C@H](NC(=O)c3ccccc3Cl)[C@H](c3ccc(F)cc3)C2)cc1OC` (relative stereo) [Example 114B, 2-chloro-N-(cis-1-(3,4-dimethoxybenzoyl)-3-(4-fluorophenyl)piperidin-4-yl)benzamide] are 99% and 56%.
For `COc1cc(C(=O)N2CC[C@@H](NC(=O)c3cnn(C)c3Cl)[C@@H](c3ccccc3)C2)cnc1OC` [Example 150B, 5-chloro-N-((3S,4R)-1-((5,6-dimethoxypyridin-3-yl)carbonyl)-3-phenylpiperidin-4-yl)-1-methyl-1H-pyrazole-4-carboxamide], the inhibition at 1 µM in test [1] amounted to 101%; in test [2], 47%.
The corresponding values for `Cc1nn(C)c(Cl)c1C(=O)N[C@@H]1CCN(C(=O)c2cc(Cl)c3ncc(C)n3c2)C[C@@H]1c1ccccc1` [Example 342B, 5-chloro-N-((3S,4R)-1-((8-chloro-3-methylimidazo[1,2-a]pyridin-6-yl)carbonyl)-3-phenylpiperidin-4-yl)-1,3-dimethyl-1H-pyrazole-4-carboxamide] are 101% and 51%.
The like results for `COc1cc(C(=O)N2CC[C@@H](NC(=O)c3c(C)nn(C)c3Cl)[C@@H](c3ccccc3)C2)cc2nccnc12` [Example 345B, 5-chloro-N-((3S,4R)-1-((8-methoxyquinoxalin-6-yl)carbonyl)-3-phenylpiperidin-4-yl)-1,3-dimethyl-1H-pyrazole-4-carboxamide] were, in that order, 102% and 48%.
The corresponding values for `CCOc1cc(C(=O)N[C@@H]2CCN(C(=O)c3cc(Cl)c4nccnc4c3)C[C@@H]2c2ccccc2)n(C)n1` [Example 170B, N-((3S,4R)-1-((8-Chloroquinoxalin-6-yl)carbonyl)-3-phenylpiperidin-4-yl)-3-ethoxy-1-methyl-1H-pyrazole-5-carboxamide] are 100% and 50%.
Take `COc1cc(C(=O)N2CC[C@@H](NC(=O)c3cc(C(F)(F)F)nn3C)[C@@H](c3ccc(F)cc3)C2)cc2nccnc12` [Example 352B, N-((3S,4R)-3-(4-fluorophenyl)-1-((8-methoxyquinoxalin-6-yl)carbonyl)piperidin-4-yl)-1-methyl-3-(trifluoromethyl)-1H-pyrazole-5-carboxamide]: the inhibition at 1 µM worked out at 102% in test [1] and 50% in test [2].

As usually defined, the inhibition is the change of the read-out against control, counted positive when it falls.

These data come from patent US10189785B2, “Heterocyclic compound” (TAKEDA PHARMACEUTICAL COMPANY LIMITED, priority 2015, dated 2019).
